# From patent US20100099700A1, “HYDROGENATED PYRIDO (4,3-B) INDOLES FOR TREATING AMYOTROPHIC LATERAL SCLEROSIS (ALS)” (priority 2006, published 2010)
# Entries after “also recorded” stand apart in the source; their conditions may differ. Read-outs that look alike come from different tables or passages of the source.
# What was measured:
# G93AmSOD mice = assay: G93AmSOD transgenic mouse treatment model (time to stage 2 / stage 1 disease); format: in vivo
# Experimental: For this study, G93AmSOD mice were randomized into 4 treatment groups. Mice were weaned and raised on a normal diet for 85 days. Beginning at approximately day 80 or earlier if noted clinically, animals underwent daily assessment for hind limb weakness (time to stage 3 disease). In general, this occurred within a week of day 85. At 85 days, mice were given dimebon in the drinking water at the following concentrations: vehicle control (0 mg/kg/day), low dose (3 mg/kg/day), medium dose (10 mg/kg/day), and high dose (30 mg/kg/day). The drinking water was changed every 3-4 days, and each cage held approximately 3-5 animals.
# Animals were weighed and analyzed daily to assess their strength and function. The day during which hind limb paralysis occurred was recorded (progression to stage 2 disease). Also recorded was the day at which the animals could no longer right themselves after 30 seconds (progression to stage 1 disease—a surrogate for mortality). Upon reaching stage 1 disease, animals were euthanized. […] When animals were no longer able to reliably reach the drinking water, they were given their daily mg/kg dose by intraperitoneal injection. Analyses were performed to compare the groups in terms of time to reach stage 2 and time to reach stage 1. As described further below, a Cox proportional hazards model including the effect of treatment group was fit.
# (§1) A Cox proportional hazards regression model including the effect of treatment group was fit for the time to stage 2 for both sexes combined. In addition to testing the null hypothesis of no difference among the four groups, pair wise comparisons of each of the treated groups to the control group were tested. The model was fit using the SAS PHREG procedure. The same type of model was then fit to the data for each sex separately.
# as §1, with “1” for “2”
# [1] = test system: transgenic Drosophila engineered to express the mutant huntingtin protein in all their neurons; assay: Inhibition of mutant huntingtin-induced neurodegeneration of photoreceptor neurons in Drosophila eyes (pseudopupil method); format: in vivo; conditions: 7 days
# Experimental: Dimebon was administered to one group of transgenic Drosophila engineered to express the mutant huntingtin protein in all their neurons as described in U.S. Provisional Patent Application No. 60/723,403. This was accomplished by cloning a foreign gene into transposable p-element DNA vectors under control of a yeast upstream activator sequence that was activated by the yeast GAL4 transcription factor. These promoter fusions were injected into fly embryos to produce transgenic animals. The foreign gene is silent until crossed to another transgenic strain of flies expressing the GAL4 gene in a tissue specific manner. The Elav>Gal4 which expresses the transgene in all neurons from birth until death was used in the experiments described. The two types of transgenic animals were crossed in order to collect enough closely matched aged controls to study. The crossed aged-matched adults (−20 per dosing group) were placed on drug containing food for 7 days. Animals were transferred to fresh food daily to minimize any effects caused by instability of the compounds. Survival was scored daily. At day 7, animals were sacrificed and the number of photoreceptor neurons surviving was counted.
# [2] = test system: wildtype Drosophila fruit flies; assay: Toxicity of dimebon in wildtype Drosophila (eclosion number and timing); format: in vivo; conditions: daily
# Experimental: Dimebon was evaluated for toxicity levels in wildtype Drosophila fruit flies as described in U.S. Provisional Patent Application No. 60/723,403. Dimebon was administered daily at doses ranging from 10 μM to 1 mM to explore its toxicity. An untreated control group was also studied in this experiment. The concentrations given were concentrations of dimebon in the food that animals drink/eat ad libitum. The food consisted of cornmeal, dextrose, yeast and agar.
# About 500 wild type Drosophila eggs were collected on grape juice plates, washed with distilled water and transferred 100 per vial to grow at 25 degrees C. The adult progeny were scored after eclosing (emerging from the pupal case) beginning 10 days later. The criteria used for toxicity were the number (%) of animals that eclose and the time of the eclosing. For example, fewer animals may emerge from the pupal case if a drug is toxic or the same number of animals may eclose but more slowly than the untreated control group.
# primary chick neurons [3] = assay: 2% growth factor withdrawal (low serum) assay, MTT viability; format: cell-based, chicken
# Experimental: (§2) Cells: Lohman Brown chicken embryo hybrids were used for the assay. One-day-old fertilised eggs were purchased from a local chicken breeder (Schropper Geflügel GmbH, Austria) and stored in the lab under appropriate conditions (12° C. and 80% humidity). At embryonic day 0 eggs were transferred into a breeding incubator and stored under permanent turning until embryonic day 8 at 37.8° C. and 55% humidity. Approximately five to six chicken embryos were used for isolation of neurons per experiment.
# (§3) Eggs were wiped with 70% ethanol and cracked with large forceps at the blunt end. After decapitation of the embryo, the tissue covering the telencephalon was removed and hemispheres collected. After removing any loose tissue and remaining meningeal membranes, hemispheres were transferred into a dish containing nutrition medium. The tissue was dissociated mechanically by using a 1 ml pipette and by squeezing 3 times through a sterile nylon sieve with a pore size of 100 μm.
# (§4) Poly-D-Lysine coated 96-well microtiter plates (Biocoat) were used to culture the cells. Culture medium (160 μl) containing 3×10^5 cells/ml nutrition medium (48 000 cells/well) were added to each well of a microtiter plate Plates were kept at 37° C., 95% humidity and 5% CO2 without change of media. Neurons begin to extend processes after a few hours in culture.
# Low Serum Culture Conditions: The low serum medium used for the 2% growth factor withdrawal experiments described here includes EMEM with 1 g glucose/l and 2% FCS. The control medium includes DMEM with 4.5 g glucose/l and 5% Nu Serum. […]
# Dimebon was applied to the cells on day 1 for the whole experimental period of 8 days. Viability of cells was determined with the MTT assay using a plate-reader (570 nM). […] Since this reaction is catalysed in living cells only the assay can be used for the quantification of cell viability. […] To estimate optical density a plate-reader (Anthos HT II) was used at wavelength 570 nM. […]
# primary chick neurons [4] = assay: 2% growth factor withdrawal (low serum) assay, AM-Calcein; format: cell-based, chicken; conditions: p<0.01, 8 days
# Experimental: as §2, §3
# as §4, with “culture. […]” for “culture.”
# [5] = test system: transgenic Drosophila engineered to express the mutant huntingtin protein in all their neurons; conditions: historical positive control; cited from earlier work
# [6] = 3 mg/kg/day versus vehicle, both sexes combined
# [7] = 3 mg/kg/day versus vehicle, females
# [8] = 3 mg/kg/day versus vehicle, males
# [9] = 3 mg/kg/day, both sexes combined
# [10] = 10 mg/kg/day versus vehicle, both sexes combined
# [11] = 10 mg/kg/day versus vehicle, females
# [12] = 10 mg/kg/day versus vehicle, males
# [13] = 10 mg/kg/day, both sexes combined
# [14] = 30 mg/kg/day versus vehicle, both sexes combined
# [15] = 30 mg/kg/day versus vehicle, females
# [16] = 30 mg/kg/day versus vehicle, males
# [17] = 30 mg/kg/day, both sexes combined
structure (smiles),measurement,setting,value
"Cc1ccc2c(c1)c1c(n2CCc2ccc(C)nc2)CCN(C)C1.Cl.Cl [dimebon, 2,8-dimethyl-5-(2-(6-methyl-3-pyridyl)-ethyl)-2,3,4,5-tetrahydro-1H-pyrido(4,3-b)indol dihydrochloride]",Time to Stage 1: hazard ratio (Cox proportional hazards),G93AmSOD mice; [6],1.112
same,Time to Stage 2: hazard ratio (Cox proportional hazards),G93AmSOD mice; [6],0.969
same,Time to Stage 1: hazard ratio (Cox proportional hazards),G93AmSOD mice; [7],1.089
same,Time to Stage 2: hazard ratio (Cox proportional hazards),G93AmSOD mice; [7],0.882
same,Time to Stage 1: hazard ratio (Cox proportional hazards),G93AmSOD mice; [8],0.967
same,Time to Stage 2: hazard ratio (Cox proportional hazards),G93AmSOD mice; [8],0.984
same,Mean Time to Stage 1 (Expressed as a Percentage of the Mean in the Vehicle Group),G93AmSOD mice; [9],98.8%
same,Mean Time to Stage 2 (Expressed as a Percentage of the Mean in the Vehicle Group),G93AmSOD mice; [9],99.8%
same,Mean Time to Stage 1 (Expressed as a Percentage of the Mean in the Vehicle Group),"G93AmSOD mice; 3 mg/kg/day, females",97.4%
same,Mean Time to Stage 2 (Expressed as a Percentage of the Mean in the Vehicle Group),"G93AmSOD mice; 3 mg/kg/day, females",100.2%
same,Mean Time to Stage 1 (Expressed as a Percentage of the Mean in the Vehicle Group),"G93AmSOD mice; 3 mg/kg/day, males",100.2%
same,Mean Time to Stage 2 (Expressed as a Percentage of the Mean in the Vehicle Group),"G93AmSOD mice; 3 mg/kg/day, males",99.4%
same,Time to Stage 1: hazard ratio (Cox proportional hazards),G93AmSOD mice; [10],0.738
same,Time to Stage 2: hazard ratio (Cox proportional hazards),G93AmSOD mice; [10],0.652
same,Time to Stage 1: hazard ratio (Cox proportional hazards),G93AmSOD mice; [11],0.855
same,Time to Stage 2: hazard ratio (Cox proportional hazards),G93AmSOD mice; [11],0.659
same,Time to Stage 1: hazard ratio (Cox proportional hazards),G93AmSOD mice; [12],0.524
same,Time to Stage 2: hazard ratio (Cox proportional hazards),G93AmSOD mice; [12],0.545
same,Mean Time to Stage 1 (Expressed as a Percentage of the Mean in the Vehicle Group),G93AmSOD mice; [13],103.3%
same,Mean Time to Stage 2 (Expressed as a Percentage of the Mean in the Vehicle Group),G93AmSOD mice; [13],104.9%
same,Mean Time to Stage 1 (Expressed as a Percentage of the Mean in the Vehicle Group),"G93AmSOD mice; 10 mg/kg/day, females",102.3%
same,Mean Time to Stage 2 (Expressed as a Percentage of the Mean in the Vehicle Group),"G93AmSOD mice; 10 mg/kg/day, females",104.9%
same,Mean Time to Stage 1 (Expressed as a Percentage of the Mean in the Vehicle Group),"G93AmSOD mice; 10 mg/kg/day, males",104.2%
same,Mean Time to Stage 2 (Expressed as a Percentage of the Mean in the Vehicle Group),"G93AmSOD mice; 10 mg/kg/day, males",104.9%
same,Time to Stage 1: hazard ratio (Cox proportional hazards),G93AmSOD mice; [14],0.505
same,Time to Stage 2: hazard ratio (Cox proportional hazards),G93AmSOD mice; [14],0.522
same,Time to Stage 1: hazard ratio (Cox proportional hazards),G93AmSOD mice; [15],0.314
same,Time to Stage 2: hazard ratio (Cox proportional hazards),G93AmSOD mice; [15],0.359
same,Time to Stage 1: hazard ratio (Cox proportional hazards),G93AmSOD mice; [16],0.647
same,Time to Stage 2: hazard ratio (Cox proportional hazards),G93AmSOD mice; [16],0.698
same,Mean Time to Stage 1 (Expressed as a Percentage of the Mean in the Vehicle Group),G93AmSOD mice; [17],104.7%
same,Mean Time to Stage 2 (Expressed as a Percentage of the Mean in the Vehicle Group),G93AmSOD mice; [17],104.8%
same,Mean Time to Stage 1 (Expressed as a Percentage of the Mean in the Vehicle Group),"G93AmSOD mice; 30 mg/kg/day, females",107.0%
same,Mean Time to Stage 2 (Expressed as a Percentage of the Mean in the Vehicle Group),"G93AmSOD mice; 30 mg/kg/day, females",107.7%
same,Mean Time to Stage 1 (Expressed as a Percentage of the Mean in the Vehicle Group),"G93AmSOD mice; 30 mg/kg/day, males",102.4%
same,Mean Time to Stage 2 (Expressed as a Percentage of the Mean in the Vehicle Group),"G93AmSOD mice; 30 mg/kg/day, males",101.8%
same,rescue of photoreceptor neurons,[1]; 10 μM in food,lesser but still apparent rescue of neurons
same,rescue of photoreceptor neurons compared to untreated controls,[1]; 100 μM in food,statistically significant (p=0.0014) rescue of neurons
same,rescue of photoreceptor neurons,[1]; 1 mM in food,"still appeared to cause neuronal rescue, but to a lesser extent"
same,% of animals eclosing,[2]; 1 mM in food,decrease
same,timing of emergence slowed,[2]; 1 mM in food,approximately 1 day
same,toxicity (% of animals that eclose and time of eclosing),"[2]; doses below 1 mM in food, dihydrochloride",no significant toxicity; also recorded: did not show significant toxicity
same,Emax at 6.25 µM,"primary chick neurons [3]; Gallus gallus, Neuron, 192 h, 6250 nM, 8 days, read-out: maximum effect in the MTT assay, above control",~287%
same,Dimebon concentrations at which statistically significant differences compared to control were achieved,"primary chick neurons [3]; MTT, p<0.05, 8 days",≥ 1250 nM
same,effect in the MTT assay,primary chick neurons [3]; highest tested concentration 31250 nM,less than what was achieved at a concentration of 6250 nM
same,Dimebon concentrations at which statistically significant differences compared to control were achieved,primary chick neurons [4],≥ 1250 nM
C[C@@H](N)[C@H]1CC[C@H](C(=O)Nc2ccncc2)CC1 [Y-27632],rescue of photoreceptor neurons,[5],strongly rescuing
